Reference: patent publication US20210156844A1, “TMEM16A Modulation for Diagnostic or Therapeutic Use in Pulmonary Hypertension (PH)” (Bayer Aktiengesellschaft, priority 2017, published 2021)

How the values were obtained:
PASMC = test: Membrane potential (Em) measurement, current clamp, primary PASMC; type: cell-based, human; conditions: BBR 30 μM, T16Ainh-A01 10 μM
Procedure: PASMC were grown on glass coverslips and serum starved for 24-48 hours. The coverslips were perfused with a bath solution composed of (in mM) NaCl 141, KCl 4.7, HEPES 10, glucose 10, CaCl2 1.8, MgCl2 1.2, pH 7.4 (NaOH) at room temperature. Micropipettes were pulled of borosilicate glass capillaries (GC150F-10, Harvard Apparatus Ltd, Edenbridge, Kent, UK) with a P-2000 electrode puller (Sutter Instruments, Novato Ca, USA), and fire polished using a micro-forge (MF-830, Narishige, Tokyo, Japan) to give a final resistance of 3-5 MΩ when filled with the pipette solution (composition in mM: NaCl 10, KCl 125, K2ATP 5, HEPES 10, EGTA 5, MgCl2 4, pH set to 7.2 with KOH). Em was measured with a HEKA EPC10 patch clamp amplifier (Dr. Schulze GmbH, Lambrecht, Germany) in the current clamp mode as described by others (Mason, M J, et al., Biophys. J. (2005) 88, 739-750; Perkins, KL, J. Neurosci. Methods (2006) 154, 1-18).
The liquid junction potential was calculated with the Clampex 10.0 software (Molecular Devices, Sunnyvale Calif., USA) and an online correction was made for each recording. Both at baseline and during perfusion with 30 μM benzbromarone (BBR, Sigma, St Louis Mo., USA) or 10 μM T16Ainh-A01 (Tocris, Bristol, UK), only those recordings in which (1) the Em was constant for at least 3 minutes, and (2) the seal resistance was constantly high (>5 GΩ) were used for the analyses.
The HEK-293 cells were transfected overnight either with the CLCA1 gene containing or with the empty plasmid, using the Effectene transfection reagent kit (Qiagen) and DMEM F-12 complete medium. On the next day, the medium was changed to serum-free SMC Medium. The resulting conditioned media were collected 24 hours later and applied on the PASMC of healthy donors. After 24 hours of incubation, the Em of the PASMC was measured as described above. To confirm the presence of CLCA1 in the conditioned medium, 20 μL of conditioned medium as well as control medium (collected from cells transfected with the empty plasmide) were analyzed with western blot as described above, using a CLCA1 antibody (ab108851, Abcam).

[1] = test system: U-46619 preconstricted isolated mouse PA; test: Measurement of pulmonary artery tone ex vivo; conditions: cumulatively increasing concentrations 0.1 to 30 μM; U-46619 30 nM
Procedure: Pulmonary artery rings were isolated from male C57BL/6J mice (20-25 weeks old, Charles River, Wilmington Mass., USA), as described by Jain et al. (Jain, P P, et al., Int. J. Nanomedicine (2014) 9, 3249-3261). Following stable contraction (approx. 30 minutes post-addition of U-46619, 30 nM), the arteries were subjected to cumulatively increasing concentrations (0.1 to 30 μM) of the TMEM6A blockers T16Ainh-A01 (Tocris) and benzbromarone (Sigma) in order to analyze the concentration-response relationships.

CCc1c(C)nc(SCC(=O)Nc2nc(-c3ccc(OC)cc3)cs2)[nH]c1=O [T16Ainh-A01, 2-[(5-Ethyl-1,6-dihydro-4-methyl-6-oxo-2-pyrimidinyl)thio]-N-[4-(4-methoxyphenyl)-2-thiazolyl]-acetamide]
reversal of the Em of IPAH-PASMC to the levels of PASMC isolated from healthy donors (PASMC; PASMC of IPAH patients): close
effect on Em of PASMC of donors (PASMC; PASMC of healthy donors): no effect
vasorelaxation of preconstricted PA [1]: dose-dependent vasorelaxation
